What follows are molecules tested against T1, nucleolin (Homo sapiens, UniProt P19338) (assay: Nucleolin/nucleic acid ligand interaction assay (gel retardation)). Conditions: relative affinity of each nucleic acid ligand for recombinant nucleolin (MBP fusion, ~250 nM); 32P-labeled ligand; 6% DNA retardation gel.
T1 construct: without the N-terminal acidic stretches domain
Format: binding
Design: key: A “+” represents the weakest nucleolin affinity; a “++++” represents the strongest nucleolin affinity
Procedure: The following assays can be used to assess the effects of compounds on interactions between nucleolin and nucleic acid ligands capable of forming quadruplex (QP) and hairpin (HP) secondary structures. Nucleic acid ligands tested were a cMyc QP DNA having nucleotide sequence 5′-[…]-3′ and a HP pre-rRNA region to which nucleolin binds, having the sequence 5′-[…]-3′. In the assays, recombinant nucleolin (˜250 nM), which has been fused to maltose binding protein, and has the sequence under accession number NM_005381 without the N-terminal acidic stretches domain, is incubated with each of the two ^32P-labeled nucleic acid ligands (10 or 250 nM). Nucleolin and the nucleic acid ligand are incubated in the presence or absence of a test compound 7 in an incubation buffer (12.5 mM Tris, pH 7.6, 60 mM KCl, 1 mM MgCl2, 0.1 mM EDTA, 1 mM DTT, 5% glycerol, 0.1 mg/ml BSA) for 30 minutes at room temperature.
The resulting complexes are separated on a 6% DNA retardation gel using 0.5×TBE with 20 mM KCl as a running buffer. The assay also can be conducted using nucleic acid ligands derived from human ribosomal DNA, whereby one can identify a compound that selectively modulates formation of a nucleolin/nucleic acid complex that depends on the conformation of the nucleic acid. Sequences of suitable nucleic acids are shown in the preceding example. […] A “+” represents the weakest nucleolin affinity and a “++++” represents the strongest nucleolin affinity. […] Using nucleic acids such as these having known conformational properties, one can identify a compound such as the compounds described herein that selectively interferes with binding of nucleolin to a particular quadruplex structure.

T1 sequence (P19338 284-710 limits assumed): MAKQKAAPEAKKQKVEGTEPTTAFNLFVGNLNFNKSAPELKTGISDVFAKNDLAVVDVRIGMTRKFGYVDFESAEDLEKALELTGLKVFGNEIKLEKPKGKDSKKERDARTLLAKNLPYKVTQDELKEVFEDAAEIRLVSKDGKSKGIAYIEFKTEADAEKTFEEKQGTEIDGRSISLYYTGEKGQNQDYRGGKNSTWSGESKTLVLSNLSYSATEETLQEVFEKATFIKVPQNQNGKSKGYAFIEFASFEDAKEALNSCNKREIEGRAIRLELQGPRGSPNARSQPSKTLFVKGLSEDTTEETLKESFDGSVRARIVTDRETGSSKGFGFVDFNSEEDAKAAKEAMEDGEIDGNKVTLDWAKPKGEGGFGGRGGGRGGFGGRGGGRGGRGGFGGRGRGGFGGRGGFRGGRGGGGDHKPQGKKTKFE

Molecule	Affinity for Nucleolin
7733T: DNA oligonucleotide from human rDNA template strand, GGGAGGGGCACGGGCCGGGGGCGGGACGGG (DNA, backbone and methylation of C not given here) [Example 7733T]	+
8749NT: DNA oligonucleotide from human rDNA non-template strand, GGGAGGGCGCGCGGGTCGGGG (chemistry not given here) [Example 8749NT]	+
6183NT: DNA oligonucleotide from human rDNA non-template strand, GGGTCGGGGGCGGTGGTGGGCCCGCGGGGG (DNA, backbone and methylation of C not given here) [Example 6183NT]	+
8511NT: DNA oligonucleotide from human rDNA non-template strand, GGGGGTGGGCGGGCGGGGCCGGGGGTGGG (DNA, backbone and methylation of C not given here) [Example 8511NT]	++++
11028NT: DNA oligonucleotide from human rDNA non-template strand, GGGGCGCGGCGGGGGGAGAAGGGTCGGGGCGGCAGGGG (DNA, backbone and methylation of C not given here) [Example 11028NT]	+
8762NT: DNA oligonucleotide from human rDNA non-template strand, CGGAGGGCGCGCGGGTCGGGGCGGCGGCGGCGGCGGCGGTGGCGGCGGCGGCGGGGGCGGCGGG (nucleic acid, chemistry not given here) DNA: CGGAGGGCGCGCGGGTCGGGGCGGCGGCGGCGGCGGCGGTGGCGGCGGCGGCGGGGGCGGCGGG	++++
